# Biological target: NaV1.5 (Homo sapiens, UniProt Q14524)
# Assay: Cut-open oocyte recording of NaV1.5
# Type: cell-based
# Details: 10 µM CP1
# Excerpt: Since CP1 has a similar effect to PIP2 in mediating VSD-pore coupling in KCNQ channels, we tested if CP1 has effects on other ion channels that are also sensitive to PIP2 or are voltage activated and share general structural features of the VSD and the pore with KCNQ. […] On the other hand, NaV1.5 and KV4.2 are voltage-gated ion channels.
# Fig. 6 Effects of CP1 on other ion channels expressed in Xenopus oocytes. a Currents of Kir1.1, CaV1.2, NaV1.5, hERG, and KV4.2 before and after application of 10 µM CP1, respectively. The voltages for holding, test, and returning pulses were Kir1.1, 0 mV, −100 to +60 mV, 0; CaV1.2, −100 mV, −100 to +60, −100 mV; NaV1.5, −100, −120 to +40 mV, −120 mV; hERG, −80 mV, −90 to +60 mV, −60 mV; KV4.2, −80 mV, −100 mV to +80 mV, −40 mV; HCN4, −30 mV, −30 to −140 mV, −120 mV. b Current–voltage relations of Kir1.1 channel in the absence or presence of 10 µM CP1 (n = 7). c–g G–V relations of indicated channels with and without 10 µM CP1. The ΔV1/2 of G–V relations (mV) are CaV1.2, 3.38 ± 0.71 mV (c); NaV1.5, −2.26 ± 0.95 mV (d); hERG, 6.85 ± 1.81 mV (e); KV 4.2, −2.26 ± 2.88 mV (f); HCN4, 17.13 ± 1.59 mV (g).
# Complementary DNA (cDNA) encoding human KCNQ1 (UniProtKB/Swiss‐Prot under accession no. P51787), KCNQ2 (O43526), KCNQ3 (O43525), KCNE1 (P15382), Kir1.1 (P48048), hERG (Q12809), KV4.2 (Q63881), NaV1.5 (Q14524), NaV β1 (Q07699), CaV1.2 (Q13936), CaV β1a (Q02641), CaV α2/δ1 (P54289), and HCN4 (Q9Y3Q4) were subcloned into oocyte expression vectors, respectively. Site-directed mutations of the KCNQ1 channel were all produced by overlap extension polymerase chain reaction (PCR) with high-fidelity Pfu polymerase (Stratagene, CA). The presence of the desired mutation was verified by sequencing the PCR-amplified regions. All the primer sequences used in this study are available in Supplementary Table 1. The complementary RNA (cRNA) of all these channels and mutations was transcribed in vitro with the T3, T7, or SP6 polymerase mMessage mMachine kit (Invitrogen, Thermo Fisher Scientific, MO).
# The use of Xenopus laevis to obtain oocytes was approved by the Washington University Animal Studies Committee (protocol #20190030). Oocytes were manually dispersed and digested with collagenase (0.5 mg/ml, Sigma-Aldrich, Saint Louis, MO) to remove the follicle cell layer. Stage V or VI oocytes were selected and injected with cRNAs (9.2 ng) of channel or mutations. Especially, to characterize IKs, a mix of cRNAs at a molar ratio 4:1 (KCNQ1:KCNE1) was injected. For KCNQ2/KCNQ3, the molar ratio was 1:1 (KCNQ2:KCNQ3). For sodium channels, a 3:1 molar ratio (β1:NaV1.5) and for calcium channels a weight ratio 1:1:1 (β1:α2/δ1:CaV1.2) was injected, respectively. Injected oocytes were incubated in ND96 solution containing (in mM) 96 NaCl, 2 KCl, 1.8 CaCl2, 1 MgCl2, and 5 HEPES, pH 7.6, supplemented with 2.5 mM Na pyruvate and 1% penicillin–streptomycin, at 18 °C for 3–7 days before recording.
# NaV1.5 currents were recorded with a cut-open amplifier (CA-1B, Dagan Corporation) coupled with an A/D converter (Digidata 1440, Molecular Devices). The data were acquired using Clampex software (v10, Molecular Devices). The internal solution was composed of (mM) 105 NMG‐Mes, 10 Na‐Mes, 20 HEPES, and 2 EGTA, pH 7.4. The external solution was composed of (mM) 25 NMG‐Mes, 90 Na‐Mes, 20 HEPES, and 2 Ca‐Mes2, pH 7.4. The ionic currents were recorded using the standard I–V protocol. From a holding potential of −120 mV, cells were stepped to a 100-ms prepulse of −120 mV and then stepped to test potentials ranging from −120 to 60 mV with 20-mV increment, […] a 100-ms postpulse of −120 mV.
# Chain of NaV1.5 (Q14524 whole entry): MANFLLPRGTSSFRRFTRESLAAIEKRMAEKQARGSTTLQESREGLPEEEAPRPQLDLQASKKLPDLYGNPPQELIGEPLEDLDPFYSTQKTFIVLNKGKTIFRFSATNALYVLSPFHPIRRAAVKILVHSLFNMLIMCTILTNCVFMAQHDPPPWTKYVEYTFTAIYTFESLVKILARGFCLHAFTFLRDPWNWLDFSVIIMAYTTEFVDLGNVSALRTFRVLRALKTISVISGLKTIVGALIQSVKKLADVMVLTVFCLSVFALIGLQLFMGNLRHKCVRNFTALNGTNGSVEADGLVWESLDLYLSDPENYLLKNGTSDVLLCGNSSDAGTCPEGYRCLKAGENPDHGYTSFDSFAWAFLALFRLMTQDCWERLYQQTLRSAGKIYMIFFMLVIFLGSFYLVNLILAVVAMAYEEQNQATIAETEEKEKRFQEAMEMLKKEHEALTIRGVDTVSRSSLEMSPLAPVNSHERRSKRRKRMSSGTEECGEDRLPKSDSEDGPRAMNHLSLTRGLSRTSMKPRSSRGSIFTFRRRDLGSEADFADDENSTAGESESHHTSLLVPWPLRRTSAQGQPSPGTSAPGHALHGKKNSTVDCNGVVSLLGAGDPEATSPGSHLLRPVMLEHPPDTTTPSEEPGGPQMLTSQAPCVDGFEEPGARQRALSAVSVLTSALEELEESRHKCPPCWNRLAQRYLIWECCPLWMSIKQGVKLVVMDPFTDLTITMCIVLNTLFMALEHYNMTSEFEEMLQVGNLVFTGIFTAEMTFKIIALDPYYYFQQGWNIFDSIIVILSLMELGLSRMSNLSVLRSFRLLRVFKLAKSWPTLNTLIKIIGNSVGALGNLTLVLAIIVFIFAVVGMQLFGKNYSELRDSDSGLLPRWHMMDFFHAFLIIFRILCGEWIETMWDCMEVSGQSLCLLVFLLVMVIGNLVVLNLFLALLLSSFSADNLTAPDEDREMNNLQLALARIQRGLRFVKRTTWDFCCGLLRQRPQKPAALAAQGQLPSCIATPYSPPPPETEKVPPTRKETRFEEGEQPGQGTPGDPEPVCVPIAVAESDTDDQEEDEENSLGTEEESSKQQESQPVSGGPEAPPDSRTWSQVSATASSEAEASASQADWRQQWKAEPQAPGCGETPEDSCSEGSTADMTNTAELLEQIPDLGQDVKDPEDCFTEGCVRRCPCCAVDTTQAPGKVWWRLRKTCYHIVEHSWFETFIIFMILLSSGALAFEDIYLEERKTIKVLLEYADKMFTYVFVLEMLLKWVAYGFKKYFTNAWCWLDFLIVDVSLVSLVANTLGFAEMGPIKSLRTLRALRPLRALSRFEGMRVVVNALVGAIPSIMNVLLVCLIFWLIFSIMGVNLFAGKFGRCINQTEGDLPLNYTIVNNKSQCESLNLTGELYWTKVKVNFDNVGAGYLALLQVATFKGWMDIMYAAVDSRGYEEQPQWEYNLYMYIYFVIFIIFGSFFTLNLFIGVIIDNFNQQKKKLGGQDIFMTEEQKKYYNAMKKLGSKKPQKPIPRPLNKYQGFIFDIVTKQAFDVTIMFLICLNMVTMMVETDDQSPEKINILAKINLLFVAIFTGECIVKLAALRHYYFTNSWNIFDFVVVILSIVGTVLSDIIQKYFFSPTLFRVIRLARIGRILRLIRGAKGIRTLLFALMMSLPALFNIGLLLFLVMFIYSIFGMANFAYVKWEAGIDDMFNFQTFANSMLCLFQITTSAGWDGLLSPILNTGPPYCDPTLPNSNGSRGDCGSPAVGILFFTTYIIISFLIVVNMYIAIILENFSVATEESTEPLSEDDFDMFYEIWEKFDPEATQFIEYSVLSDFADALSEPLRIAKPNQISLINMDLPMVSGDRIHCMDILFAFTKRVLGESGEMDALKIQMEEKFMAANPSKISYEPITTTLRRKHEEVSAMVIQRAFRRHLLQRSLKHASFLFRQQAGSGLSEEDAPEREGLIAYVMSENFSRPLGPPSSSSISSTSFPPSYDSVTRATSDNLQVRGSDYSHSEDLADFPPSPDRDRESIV
# Chain of NaV1.5 (Q07699 19-218 partner): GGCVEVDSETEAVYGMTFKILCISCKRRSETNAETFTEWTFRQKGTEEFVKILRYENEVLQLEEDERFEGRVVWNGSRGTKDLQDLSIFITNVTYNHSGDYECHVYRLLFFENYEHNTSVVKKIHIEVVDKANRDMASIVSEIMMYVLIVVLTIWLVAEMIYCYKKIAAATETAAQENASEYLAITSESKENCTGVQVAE
compound,measurement,setting,value
"O=S(=O)([O-])Oc1c(-c2sc3c(ccc4cccc(Cl)c43)c2OS(=O)(=O)[O-])[nH]c2ccc(Br)cc12.[Na+].[Na+] [CP1, DISODIUM 5-BROMO-2-[9-CHLORO-3-(SULFONATOOXY) NAPHTHO [1,2-B] THIEN-2-YL]-1H-INDOL-3-YL SULFATE]",ΔV1/2 of G–V relations,,−2.26 ± 0.95 mV
same,G/Gmax Mean (Fig. 6d),voltage 0 mV,0.9380
same,G/Gmax Mean (Fig. 6d),voltage 20 mV,1.0000
same,G/Gmax Mean (Fig. 6d),voltage -20 mV,0.9095
same,G/Gmax Mean (Fig. 6d),voltage -40 mV,0.8354
same,G/Gmax Mean (Fig. 6d),voltage -60 mV,0.4098
same,G/Gmax Mean (Fig. 6d),voltage -80 mV,0.0040
same,G/Gmax Mean (Fig. 6d),voltage -100 mV,0.0015
same,G/Gmax Mean (Fig. 6d),voltage -120 mV,0.0016

# — paper PMC7367283, “A PIP2 substitute mediates voltage sensor-pore coupling in KCNQ activation” (Communications Biology, 2020)
